Experimental data reported in patent US9464071B2 (priority 2010, dated 2016).

Which melting point does the source give for `COc1cc(OC)cc(N(CCN(Cc2ccc(N)cc2)C(C)C)c2ccc3ncc(-c4cnn(C)c4)nc3c2)c1` [Compound 658] here?
The melting point was 152 °C.

Which melting point does the source give for `COc1cc(OC)cc(N(C[C@@H](O)C(F)(F)F)c2ccc3ncc(-c4cnn(CCCN)c4)nc3c2)c1` [Compound 660, 3-[{3-[1-(3-Aminopropyl)-1H-pyrazol-4-yl]quinoxalin-6-yl}(3,5-dimethoxyphenyl)amino]-1,1,1-trifluoropropan-2-ol] here?
Its melting point is 151 °C.

With `COc1cc(OC)cc(N(CCCc2nccc(O)n2)c2ccc3ncc(-c4cnn(C)c4)nc3c2)c1` [Compound 663] as the compound, how does the melting point read?
The melting point was 200 °C.

With `COc1cc(OC)cc(N(CCCNCC(F)F)c2ccc3ncc(-c4cnn(C)c4)nc3c2)c1` [Compound 717] as the compound, how does the melting point read?
The melting point was 125 °C.

For `COc1cccnc1C#CCN(c1ccc2ncc(-c3cnn(C)c3)nc2c1)c1c(Cl)c(OC)cc(OC)c1Cl` [Compound 785], which melting point is on record?
Its melting point is 190 °C.

With `COc1cc(OC)cc(N(c2ccc3ncc(-c4cnn(C)c4)nc3c2)C(C)(C)C#Cc2nccc(OC)n2)c1` [Compound 806] as the compound, how does the melting point read?
The melting point was 182 °C.

With `COc1cc(OC)cc(N(Cc2ncccn2)c2ccc3ncc(-c4cnn(C)c4)nc3c2)c1` [Compound 812] as the compound, how does the melting point read?
The melting point was 170 °C.

With `COc1cc(OC)cc(N(CC2CCN(c3nccc(OC)n3)CC2)c2ccc3ncc(-c4cnn(C)c4)nc3c2)c1` [Compound 839] as the compound, how does the melting point read?
Its melting point is 126 °C.

Which melting point does the source give for `Cn1cc(-c2cnc3ccc(N(CC4CC4)c4cccc(OC(F)(F)F)c4)cc3n2)cn1` [Compound 881] here?
Its melting point is 156.5 °C.

Which melting point does the source give for `CN(C)c1cccc(N(CC2CC2)c2ccc3ncc(-c4cnn(C)c4)nc3c2)c1` [Compound 883] here?
The melting point was 194 °C.

With `COc1cc(OC)cc(N(CC#Cc2cc(OC)nc(OC)n2)c2ccc3ncc(-c4cnn(C)c4)nc3c2)c1` [Compound 913] as the compound, how does the melting point read?
Its melting point is 170 °C.

Which melting point does the source give for `COc1cc(OC)cc(N(CC#CC2(O)CCN(C(=O)OC(C)(C)C)CC2)c2ccc3ncc(-c4cnn(C)c4)nc3c2)c1` [Compound 914] here?
The melting point was 166 °C.

For `COc1cc(OC)cc(N(CCC#Cc2ccccc2)c2ccc3ncc(-c4cnn(C)c4)nc3c2)c1` [Compound 919], which melting point is on record?
The melting point was 130 °C.
